# Results published in ChEMBL document CHEMBL4406808, “Synthesis and assessment of phenylacrylamide derivatives as potential anti-oxidant and anti-inflammatory agents” (Eur J Med Chem, 2019).
# The source made the active and inactive calls. The rule behind the calls is not given here.
# Assays:
# [1] = system: HBZY-1; assay: Cytoprotection activity against H2O2-induced cell death in rat HBZY-1 cells assessed as cell viability at 6 uM preincubated with compound for 2 hrs followed by H2O2 addition and measured after 24 hrs by MTT assay (reference value: 62.1%); format: functional; conditions: read-out: Activity
# [2] = system: HBZY-1; assay: Cytotoxicity against rat HBZY-1 cells assessed as reduction in cell viability after 2 hrs by MTT assay; format: cell-based; conditions: HBZY-1, 2 h
# [3] = system: HBZY-1; assay: Cytoprotection activity against H2O2-induced cell death in rat HBZY-1 cells assessed as increase in cell viability preincubated with compound for 2 hrs followed by H2O2 addition and measured after 24 hrs by MTT assay; format: functional, cell-based
# [4] = system: HBZY-1; assay: Antioxidant activity in rat HBZY-1 cells assessed as reduction in H2O2-induced intracellular ROS accumulation incubated with compound prior to H2O2 addition by DCFH-DA based flow cytometry; format: functional, cell-based
# [5] = target: T1, Nuclear factor erythroid 2-related factor 2 (Homo sapiens) (UniProt Q16236); assay: Activation of Nrf2 (unknown origin) expressed in HEK293 cells co-transfected with ARE luciferase reporter plasmid after 16 hrs by dual luciferase reporter gene assay; format: cell-based
# T1 sequence (whole entry): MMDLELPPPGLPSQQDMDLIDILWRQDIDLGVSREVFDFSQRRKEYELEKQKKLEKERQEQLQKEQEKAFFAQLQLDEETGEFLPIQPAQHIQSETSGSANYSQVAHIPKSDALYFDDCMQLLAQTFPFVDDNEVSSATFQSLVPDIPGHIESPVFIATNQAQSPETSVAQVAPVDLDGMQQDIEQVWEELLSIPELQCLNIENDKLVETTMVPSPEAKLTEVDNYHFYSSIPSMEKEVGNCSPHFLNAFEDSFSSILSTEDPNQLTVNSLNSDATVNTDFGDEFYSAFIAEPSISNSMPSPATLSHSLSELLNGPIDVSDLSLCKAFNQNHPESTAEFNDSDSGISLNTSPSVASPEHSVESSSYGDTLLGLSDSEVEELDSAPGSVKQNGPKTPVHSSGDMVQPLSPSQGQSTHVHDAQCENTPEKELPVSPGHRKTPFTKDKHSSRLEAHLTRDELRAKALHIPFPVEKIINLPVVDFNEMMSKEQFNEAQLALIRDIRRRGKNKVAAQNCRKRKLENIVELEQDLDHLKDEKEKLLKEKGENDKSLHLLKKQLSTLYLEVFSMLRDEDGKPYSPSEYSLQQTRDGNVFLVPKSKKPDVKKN
# [6] = target: Kelch-like ECH-associated protein 1 (Rattus norvegicus) (UniProt P57790); assay: Binding affinity to Keap1 in rat HBZY-1 cells assessed as induction of Nrf2 nuclear translocation by measuring increase in ratio of nuclear to cytosolic Nrf2 level by Western blot analysis; format: cell-based
# [7] = target: Kelch-like ECH-associated protein 1 (Rattus norvegicus) (UniProt P57790); assay: Binding affinity to Keap1 in rat HBZY-1 cells assessed as induction of Keap1/Nrf2 signaling by measuring increase in NQO-1 protein expression by Western blot analysis; format: cell-based
# [8] = target: Kelch-like ECH-associated protein 1 (Rattus norvegicus) (UniProt P57790); assay: Binding affinity to Keap1 in rat HBZY-1 cells assessed as induction of Keap1/Nrf2 signaling by measuring increase in HO-1 protein expression by Western blot analysis; format: cell-based
# [9] = target: Kelch-like ECH-associated protein 1 (Rattus norvegicus) (UniProt P57790); assay: Binding affinity to Keap1 in rat HBZY-1 cells assessed as induction of Keap1/Nrf2 signaling by measuring increase in GCLM protein expression by Western blot analysis; format: cell-based
# [10] = target: Kelch-like ECH-associated protein 1 (Rattus norvegicus) (UniProt P57790); assay: Binding affinity to Keap1 in rat HBZY-1 cells assessed as induction of Keap1/Nrf2 signaling by measuring increase in GCLC protein expression by Western blot analysis; format: cell-based
# [11] = system: HBZY-1; assay: Cytoprotection against H2O2-induced cell death in rat HBZY-1 cells assessed as increase in cell viability at 6 uM preincubated for 2 hrs followed by H2O2 addition and measured after 24 hrs in presence of Nrf2 inhibitor TRG by MTT assay; format: functional, cell-based
# [12] = system: HBZY-1; assay: Cytoprotection against H2O2-induced cell death in rat HBZY-1 cells assessed as increase in cell viability at 6 uM preincubated for 2 hrs followed by H2O2 addition and measured after 24 hrs in presence of HO-1 inhibitor ZnPP by MTT assay; format: functional, cell-based
# [13] = system: HBZY-1; assay: Cytoprotection against H2O2-induced cell death in rat HBZY-1 cells assessed as increase in cell viability at 6 uM preincubated for 2 hrs followed by H2O2 addition and measured after 24 hrs in presence of GCL inhibitor BSO by MTT assay; format: functional, cell-based
# [14] = system: HBZY-1; assay: Antiinflammatory activity in rat HBZY-1 cells assessed as reduction in LPS-induced NO production preincubated for 30 mins followed by LPS stimulation and measured after 24 hrs by Griess assay; format: functional, cell-based
# [15] = system: HBZY-1; assay: Antiinflammatory activity in rat HBZY-1 cells assessed as reduction in nitric oxide production at 6 uM preincubated for 30 mins followed by LPS stimulation and measured after 24 hrs in presence of Nrf2 inhibitor TRG by Griess assay; format: functional, cell-based
# [16] = system: HBZY-1; assay: Antiinflammatory activity in rat HBZY-1 cells assessed as reduction in NO production at 6 uM preincubated for 30 mins followed by LPS stimulation and measured after 24 hrs in presence of HO-1 inhibitor ZnPP by Griess assay; format: functional, cell-based
# [17] = target: Kelch-like ECH-associated protein 1 (Rattus norvegicus) (UniProt P57790); assay: (§1) Binding affinity to Keap1 in rat HBZY-1 cells transfected with pNF-kB-Luc/pRL-CMV assessed as induction of Keap1/Nrf2 signaling by measuring reduction in LPS-induced NFkappaB activation preincubated for 30 mins followed by LPS stimulation and measured after 12 hrs by luciferase reporter gene assay; format: cell-based
# [18] = target: Kelch-like ECH-associated protein 1 (Rattus norvegicus) (UniProt P57790); assay: as §1, with “activation at 6 uM” for “activation”, “hrs in presence of Nrf2 inhibitor TRG” for “hrs”; format: cell-based
# [19] = target: Kelch-like ECH-associated protein 1 (Rattus norvegicus) (UniProt P57790); assay: as §1, with “activation at 6 uM” for “activation”, “hrs in presence of HO-1 inhibitor ZnPP” for “hrs”; format: cell-based
# [20] = target: Kelch-like ECH-associated protein 1 (Rattus norvegicus) (UniProt P57790); assay: Binding affinity to Keap1 in rat HBZY-1 cells assessed as disruption of Keap1/Nrf2 complex by measuring increase in Nrf2 expression by Western blot analysis; format: cell-based
# [21] = target: Kelch-like ECH-associated protein 1 (Rattus norvegicus) (UniProt P57790); assay: Binding affinity to Keap1 in rat HBZY-1 cells assessed as disruption of Keap1/Nrf2 complex by measuring Nrf2 expression in presence of DTT by Western blot analysis; format: cell-based
# [22] = target: Kelch-like ECH-associated protein 1 (Rattus norvegicus) (UniProt P57790); assay: Binding affinity to Keap1 in rat HBZY-1 cells assessed as disruption of Keap1/Nrf2 complex by measuring reduction in Keap1 protein expression by Western blot analysis; format: cell-based
# [23] = target: Kelch-like ECH-associated protein 1 (Rattus norvegicus) (UniProt P57790); assay: Binding affinity to Keap1 in rat HBZY-1 cells assessed as disruption of Keap1/Nrf2 complex by measuring Keap1 expression in presence of DTT by Western blot analysis; format: cell-based
# [24] = target: Kelch-like ECH-associated protein 1 (Rattus norvegicus) (UniProt P57790); assay: Binding affinity to Keap1 in rat HBZY-1 cells assessed as induction of Keap1/Nrf2 signaling by measuring induction of Nrf2 nuclear translocation by measuring increase in ratio of nuclear to cytosolic Nrf2 level at 6 uM by Western blot analysis; format: cell-based; conditions: TDE = time-dependent effect
# [25] = target: Kelch-like ECH-associated protein 1 (Rattus norvegicus) (UniProt P57790); assay: Binding affinity to Keap1 in rat HBZY-1 cells assessed as induction of Keap1/Nrf2 signaling by measuring increase in NQO-1 protein expression at 6 uM by Western blot analysis; format: cell-based; conditions: TDE = time-dependent effect
# [26] = target: Kelch-like ECH-associated protein 1 (Rattus norvegicus) (UniProt P57790); assay: Binding affinity to Keap1 in rat HBZY-1 cells assessed as induction of Keap1/Nrf2 signaling by measuring increase in HO-1 protein expression at 6 uM by Western blot analysis; format: cell-based; conditions: TDE = time-dependent effect
# [27] = target: Kelch-like ECH-associated protein 1 (Rattus norvegicus) (UniProt P57790); assay: Binding affinity to Keap1 in rat HBZY-1 cells assessed as induction of Keap1/Nrf2 signaling by measuring increase in GCLM protein expression at 6 uM by Western blot analysis; format: cell-based; conditions: TDE = time-dependent effect
# [28] = target: Kelch-like ECH-associated protein 1 (Rattus norvegicus) (UniProt P57790); assay: Binding affinity to Keap1 in rat HBZY-1 cells assessed as induction of Keap1/Nrf2 signaling by measuring increase in GCLC protein expression at 6 uM by Western blot analysis; format: cell-based; conditions: TDE = time-dependent effect
# Sequence of Kelch-like ECH-associated protein 1 (Rattus norvegicus) (P57790 whole entry): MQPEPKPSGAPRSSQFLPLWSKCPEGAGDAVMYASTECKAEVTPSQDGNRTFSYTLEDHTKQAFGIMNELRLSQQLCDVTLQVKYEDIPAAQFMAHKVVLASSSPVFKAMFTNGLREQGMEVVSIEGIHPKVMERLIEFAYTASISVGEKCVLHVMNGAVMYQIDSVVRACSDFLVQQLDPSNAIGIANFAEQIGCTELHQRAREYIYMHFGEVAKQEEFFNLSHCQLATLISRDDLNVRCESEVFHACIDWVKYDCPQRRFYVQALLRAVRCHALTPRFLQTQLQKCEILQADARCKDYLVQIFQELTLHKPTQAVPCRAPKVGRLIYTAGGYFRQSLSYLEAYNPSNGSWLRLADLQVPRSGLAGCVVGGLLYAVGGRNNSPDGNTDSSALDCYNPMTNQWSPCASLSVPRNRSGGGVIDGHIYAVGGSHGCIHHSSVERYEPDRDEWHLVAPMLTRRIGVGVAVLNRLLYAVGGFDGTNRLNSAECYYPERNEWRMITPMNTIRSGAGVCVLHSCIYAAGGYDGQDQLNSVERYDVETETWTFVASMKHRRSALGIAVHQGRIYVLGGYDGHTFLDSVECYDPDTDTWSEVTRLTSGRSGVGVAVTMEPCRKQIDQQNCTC
smiles,measurement,setting,value
COc1ccc(NC(=O)/C=C/c2ccccc2C(F)(F)F)cc1,viability at 6 µM,[1],65.6 to 96.4%
same,IC50,[2],> 200 µM
COc1ccccc1C(=O)/C=C/c1ccccc1C(F)(F)F,viability at 6 µM,[1],80.3%
COc1ccccc1NC(=O)/C(C#N)=C/c1ccccc1C(F)(F)F,viability at 6 µM,[1],65.6 to 96.4%
same,Activity,[3],Dose-dependent effect
same,Activity,[4],Dose-dependent effect
same,Activity,[5],Dose-dependent effect
same,Activity,[6],Dose-dependent effect
same,Activity,[7],Dose-dependent effect
same,Activity,[8],Dose-dependent effect
same,Activity,[9],Dose-dependent effect
same,Activity,[10],Dose-dependent effect
same,Activity,[11],inactive
same,Activity,[12],inactive
same,Activity,[13],inactive
same,Activity,[14],Dose-dependent effect
same,Activity,[15],inactive
same,Activity,[16],inactive
same,Activity,[17],Dose-dependent effect
same,Activity,[18],inactive
same,Activity,[19],inactive
same,Activity,[20],Active
same,Activity,[21],inactive
same,Activity,[22],Active
same,Activity,[23],inactive
same,IC50,[2],> 200 µM
same,Activity,[24],Tde
same,Activity,[25],Tde
same,Activity,[26],Tde
same,Activity,[27],Tde
same,Activity,[28],Tde
COc1ccccc1NC(=O)/C(C#N)=C/c1cccc([N+](=O)[O-])c1,viability at 6 µM,[1],65.6 to 96.4%
same,IC50,[2],> 200 µM
COc1ccc(CCNC(=O)/C(C#N)=C/c2ccccc2C(F)(F)F)cc1OC,viability at 6 µM,[1],65.6 to 96.4%
same,IC50,[2],> 200 µM
COc1ccc(CCNC(=O)/C=C/c2ccccc2C(F)(F)F)cc1OC,viability at 6 µM,[1],65.6 to 96.4%
same,IC50,[2],> 200 µM
C[S+]([O-])CCCCN=C=S (stereo not given) [SULFORAPHANE],viability at 6 µM,[1],80%
COc1ccc(/C=C(\C#N)C(=O)Nc2ccccc2OC)cc1,viability at 6 µM,[1],65.6 to 96.4%
same,IC50,[2],> 200 µM
COc1ccc(NC(=O)/C(C#N)=C/c2ccccc2C(F)(F)F)cc1OC,viability at 6 µM,[1],78.2%
same,IC50,[2],> 200 µM
COc1ccc(NC(=O)/C=C/c2ccccc2C(F)(F)F)cc1OC,viability at 6 µM,[1],65.6 to 96.4%
same,IC50,[2],> 200 µM
COc1ccc(NC(=O)/C(C#N)=C/c2ccccc2C(F)(F)F)cc1,viability at 6 µM,[1],82.4%
same,IC50,[2],> 200 µM
N#C/C(=C\c1ccccc1C(F)(F)F)C(=O)Nc1ccc(F)c(Cl)c1,viability at 6 µM,[1],80.4%
same,IC50,[2],> 200 µM
COc1ccccc1NC(=O)/C(C#N)=C/c1cccc(C)c1,viability at 6 µM,[1],65.6 to 96.4%
same,IC50,[2],> 200 µM
